Experimental data: US20040220239A1, “Inhibitors of serine protease activity methods and compositions for treatment of nitric oxide-induced clinical conditions” (priority 2003, published 2004)
Entries after “also recorded” stand apart in the source; their conditions may differ.

Experiments:
Format in all cases: cell-based
NF-κB = experiment: Electrophoretic mobility shift assay of NF-κB induced by interleukin-18; details: induced by incubation with IL-18, EMSA; FIG. 3
RAW 264.7 macrophages = experiment: NO release induced by LPS and γ-IFN in macrophagic cells (nitrite, Greiss reagent); details: induction with γ-IFN and LPS, FIG. 1, FIG. 4
Description: RAW 264.5 macrophages are selected for measuring the effect of α1-antitrypsin on NO release. RAW 264.7 cell monolayers are pretreated for 1 hour with α1-antitrypsin (0.1-3 mg/ml), followed by costimulation by interferon-γ(10 U/ml), and LPS (1 ng/ml) for 18 hours. Aliquots (100 μl) of supernatant are combined with equal volumes of Greiss reagent and incubated at room temperature for 10 minutes. The colorimetric determination of nitrite concentration is measured by absorbance at 550 nm and quantified with a standard curve. The combination of LPS and interferon-γ is a potent stimulus for NO release in […] macrophages. The effect of α1-antitrypsin at 3 mg/ml on NO expression is measured.

cytomegalovirus (CMV) = experiment: Cytomegalovirus replication in infected RAW 264.5 macrophages; details: RAW 264.5 macrophages infected with CMV; FIG. 6
[1] = tested on: p-ERK (p42/p44 MAP kinase); experiment: Western blot of p-ERK expression; details: FIG. 5
iNOS protein = experiment: Induction of iNOS protein by LPS and γ-interferon, Western blot; details: macrophagic cells, γ-IFN and LPS, FIG. 2
Description: RAW 264.7 macrophage monolayers are treated for 1 hour with α1-antitrypsin (3 mg/ml), followed by costimulation by interferon-γ (10 U/ml), and LPS (1 ng/ml) for 18 hours. The cells are lysed by exposure to lysis solution (50 mm Tris-HCl, pH 8.0, 137 mm NaCl, 10% (v/v) glycerol, 1% (v/v), Nonidet P-40, 1 mM NaF, 10 μg/ml leupeptin, […] aprotinin, 2 mM sodium vanadate, and 1 mM phenylmethylsulfonyl fluoride). Samples containing equivalent amounts of total protein are subjected to SDS-polyacrylamide gel electrophoresis. Western blots of the gels are prepared, non-specific sites blocked by incubation overnight with 5% non-fat dry milk, and iNOS detected by incubation with iNOS anti-serum (Alexis Corporation, 1:1000 in 5% (w/v) bovine serum albumin in a solution of 20 mm Tris-HCl, pH 7.6, 137 mM […], and 0.005% (v/v) Tween 20). Using horseradish peroxidase-conjugated second antibody, the antibody bound to iNOS is detected by enhanced chemiluminescence. The effect of the combination of interferon-γ, and LPS on induction of iNOS in the cell extract and the effect of pretreatment with α1-antitrypsin are measured.

[2] = tested on: herpes simplex virus (HSV); experiment: Herpes simplex virus replication; details: FIG. 7

Row | Molecule | effect on induction of active NF-κB (NF-κB) | effect on NO levels (measured as NO2-) induced by γ-IFN and LPS (RAW 264.7 macrophages) | effect on CMV replication (cytomegalovirus (CMV)) | effect on level and/or phosphorylation of p-ERK [1] | effect on induction of iNOS protein (iNOS protein) | effect on replication of HSV [2]
1 | Cc1cccc(Cc2nnc(C(=O)C(NC(=O)[C@@H]3CCCN3C(=O)[C@@H](NC(=O)OCc3ccccc3)C(C)C)C(C)C)o2)c1 (stereo partly drawn) [CE-2072, benzyloxycarbonyl-L-valyl-N-[1-(2-[5-(3-methylbenzyl)-1,3,4-oxadiazolyl]carbonyl)-2-(S)-methylpropyl]-L-prolinamide, reference compound] | inhibit the induction of active NF-κB | inhibits NO levels |  |  |  | 
2 | α1-antitrypsin | inhibit the induction of active NF-κB | efficiently block γ-IFN- and LPS-induced NO synthesis; also recorded: inhibits NO levels | blocks CMV replication | inhibits the level and/or phosphorylation of p-ERK | inhibits induction of iNOS protein | inhibits replication of HSV
